Measured values reported in patent US20090142364A1, “Method for finding novel peptide immunostimulatory adjuvants, compositions and methods of use” (priority 2007, published 2009).
“Also recorded” adds a separate entry of the source. Where a SMILES comes first, the peptide text is derived from it.

Legend:
E. coli strain K12 = assay: Anti-infective action: survival of Balb/c mice infected with E. coli strain K12; type: in vivo; details: 1 ng-10 μg i.p. 7 days before infection, LD100 and LD50
Method: Groups of Balb/c mice (20-22 g) were administered i.p. with different doses of RN-peptide (1 ng-10 μg) or GMDP (1 ng-10 μg) in saline. Control mice received saline. […] Survival of mice was assessed during three days.

[1] = rat, in vivo, ip
Method: (§1) We studied the Ia-antigen-inducing activity of RN-peptide by stimulation in vitro of murine peritoneal macrophages. Flow cytometry was used to assess Ia-antigen expression. […] The pyrogenicity of the peptide was studied in Wistar rats. […] The dynamics of alteration of rectal temperature were monitored during 2.5 h.
The pyrogenic effect SPF female Wistar rats were injected i.p. with a peptide (1.01 mg/kg; 5.74×10^−7 mole/kg) in PBS or with equal dose of GMDP (0.4 mg/kg; 5.74×10^−7 mole/kg). Rectal temperature was recorded every 5 minutes for 160 minutes using PowerLabe/4sp system with an electronic thermometer (MLT1403 Rectal Probe for Rats, AD Instruments USA). All data were quantified (mean±SEM) and compared by the variance analysis.

[2] = tested on: antibody response to ovalbumin; assay: Adjuvant activity: antibody response to ovalbumin in mice, titer by solid-phase ELISA; type: in vivo, Balb/c mice; details: for Adjuvant index / Anti-ovalbumin antibody titer: i.p.
Method: To study the adjuvant activity of RN-peptide, Balb/c mice were immunized with ovalbumin in saline in the presence of the RN-peptide, its analogs or GMDP, or without any adjuvant (control). The adjuvant was introduced on first immunization, whereas second immunization was carried out with half dose of OVA without adjuvant.
Adjuvant activity. Groups of 5 Balb/c mice were administered i.p. with 2.5-10 μg ovalbumin (Sigma, USA) per mouse in 200 μl PBS. RN-peptide (0.1-100 μg) or GMDP (1-100 μg) was introduced simultaneously with ovalbumin on first immunization. The second immunization was carried out 28 days later with half dose of ovalbumin (1.25-5.0 μg/200 μl) without adjuvant. Control mice received ovalbumin twice without adjuvant. Three days after the second immunization mice were bled from the tail vein. […] Control mice received polysaccharide without any adjuvant. Five and ten days after immunization mice were bled.
The antibody titer was evaluated by solid-phase ELISA as described by Douillard and Hoffman (1983) Enzyme-linked immunosorbent assay for screening monoclonal antibody production using enzyme-labeled second antibody. The antigen (ovalbumin or polysaccharide), 5 μg/ml in bicarbonate buffer, pH 8.6 (100 μl), was introduced into wells of 96-well microtiter plate. Incubation was carried out overnight at 4° C. The plate was washed 5 times with PBS and 5 times with PBS/0.1% Tween-20 (PBS-T). Remaining binding sites were blocked with 1% gelatin in PBS (2 h, room temperature). After washing 100 μl of mouse serum (1:100 dilution) was added, and serial three-fold dilutions were made. Bound antibodies were visualized by incubation with Horse-Radish-Peroxidase (HRP)-conjugated rabbit anti-mouse antibodies and OPD as the chromogenic substrate.

[3] = tested on: Balb/c mice peritoneal mononuclear cells (PMC); assay: Ia-antigen-inducing effect, flow cytometry, peritoneal mononuclear cells; type: cell-based, mouse; details: at optimal dose, overnight treatment
Method: as §1
Balb/c mice peritoneal mononuclear cells (PMC) were isolated by Histopaque density gradient centrifugation. PMC or WEHI-3 cells were incubated with RN-peptide (0.1-10 μg/ml) or GMDP (positive control) or saline (negative control) in RPMI 1640 medium, supplemented with 5% fetal calf serum upon rotary mixing for 18 h at 37° C. Cells were stained on ice bath with MKD6 anti-Ia^d mAb (supernatant from the in vitro culture, 1:10 dilution) and FITC-labeled anti-mouse immunoglobulin (Sigma, USA, 1:300 dilution), and then with phycoerythrin-labeled F4/80 mAb (Caltag, USA, 0.2 μg/100 μl). Ia antigen expression was assessed by flow cytometry using EPICS “Elite” (Coulter, USA).

E6/1.2 mAb = assay: Solid-phase ELISA of TentaGel-bound synthesized peptide with E6/1.2 mAb; type: binding, mouse
Method: Different biological activities are characteristic of GMDP, including adjuvant activity, induction of non-specific resistance to infections, and the ability to induce Ia-antigen expression on murine macrophages (Khaidukov S. V. 1995). In order to evaluate the biological properties, we produced RN-peptide by solid-phase synthesis by Fmoc strategy. Two types of polymers were used, namely standard Wang's resin and TentaGel (Rapp Polymere, Germany). The synthesis carried out on Wang's resin yielded, after removal of protective groups, the free peptide which was used in biological studies after standard chromatographic purification. When hydrophilic TentaGel was used as solid support, the peptide remained bound to polymer after removal of protective groups enabling evaluation of its binding to E6/1.2 mAb by solid-phase ELISA.
Peptide synthesis. All peptides were synthesized manually by the Fmoc/t-Bu technique. Wang Resin (Bachem, Switzerland) was loaded with Fmoc-Asn(Trt)-OH via diisopropylcarbodiimide-4-dimethylaminopyridine (DIC-DMAP) procedure (Heinzelmann et al. 2000). […] Coupling efficiency during polypeptide chain assembly was routinely monitored by Kaiser ninhydrine test and in case of incomplete reactions extra couplings were carried out. […]

[4] = Immunogenicity of the peptide: anti-peptide antibody titer by solid-phase ELISA; type: in vivo, Balb/c mice; details: mice immunized once or twice in PBS, 1-100 μg i.p.
Method: Immunogenicity of the peptide. Groups of Balb/c mice (5 mice) were immunized with 1-100 μg RN-peptide in PBS i.p. twice with 10-day interval. The anti-peptide antibody titer was estimated in pooled sera by solid-phase ELISA using MaxiSorb plates (Nunc, Denmark) coated with RN-peptide (10 μg/ml). The anti-peptide antibody titer was compared with the titer of normal mouse serum. E6/1.2 mAb was used as a positive control.

[5] = adjuvant 0.1 μg, ovalbumin 2.5 μg then 1.25 μg
[6] = adjuvant 1 μg, ovalbumin 2.5 μg then 1.25 μg
[7] = adjuvant 1 μg, ovalbumin 10 μg then 5 μg
[8] = adjuvant 10 μg, ovalbumin 2.5 μg then 1.25 μg
[9] = adjuvant 10 μg, ovalbumin 10 μg then 5 μg
[10] = adjuvant 100 μg, ovalbumin 2.5 μg then 1.25 μg
[11] = adjuvant 100 μg, ovalbumin 10 μg then 5 μg

CC[C@H](C)[C@H](NC(=O)[C@H](CCCCN)NC(=O)[C@H](C)NC(=O)[C@H](Cc1c[nH]cn1)NC(=O)[C@H](Cc1ccc(O)cc1)NC(=O)[C@H](CCCNC(=N)N)NC(=O)[C@@H]1CCCN1C(=O)[C@@H]1CCCN1C(=O)[C@@H](NC(=O)[C@@H](N)CCCNC(=N)N)C(C)C)C(=O)N[C@@H](CO)C(=O)N1CCC[C@H]1C(=O)N[C@@H](CCSC)C(=O)N[C@H](C(=O)N[C@@H](CC(N)=O)C(=O)O)C(C)C [RN-peptide, RVPPRYHAKISPMVN] (H-RVPPRYHAKISPMVN-OH)
protection from E. coli infection (in words) (E. coli strain K12): substantial protection; also recorded: substantial anti-infective mode of action | increase in body temperature [1]: did not produce this effect | adjuvant dose of highest response ([2]; 2.5 μg OVA): 10 µg | anti-ovalbumin antibody titer (in words) ([2]; 100 μg/mouse): diminished | Adjuvant index [2, 5]: 0.92 ± 0.04 | Anti-ovalbumin antibody titer [2, 5]: 2250 ± 100 | Adjuvant index [2, 6]: 1.75 ± 0.06 | Anti-ovalbumin antibody titer [2, 6]: 4300 ± 150 | Adjuvant index [2, 7]: 7.3 ± 0.08 | Anti-ovalbumin antibody titer [2, 7]: 43500 ± 400 | Adjuvant index [2, 8]: 7.55 ± 0.06 | Anti-ovalbumin antibody titer [2, 8]: 19000 ± 200 | Adjuvant index [2, 9]: 2.6 ± 0.05 | Anti-ovalbumin antibody titer [2, 9]: 15700 ± 280 | Adjuvant index [2, 10]: 0.8 ± 0.008 | Anti-ovalbumin antibody titer [2, 10]: 2000 ± 20 | Adjuvant index [2, 11]: 0.9 ± 0.03 | Anti-ovalbumin antibody titer [2, 11]: 5400 ± 200 | adjuvant dose at which antibody titer peaked ([2]; first immunization with 5-10 μg of OVA): 1 μg/mouse | adjuvant activity (in words) ([2]; ovalbumin in mice): strongly enhanced antibody response | anti-ovalbumin antibody titer relative to the titer of control serum ([2]; under optimal conditions): 6.5-7.5 times | increase in Ia-positive cell number [3]: 10% | binding to GMDP-specific mAb (E6/1.2 mAb): retained the ability | anti-RN-peptide antibodies (humoral response to the peptide) [4]: did not reveal any anti-RN-peptide antibodies; also recorded: did not exceed the titer of native mice
